Source: patent publication US12319703B2, “Macrocyclic fused pyrazoles as Mcl-1 inhibitors” (ASCENTAGE PHARMA (SUZHOU) CO., LTD., priority 2019, dated 2025)
≈ marks a conversion by molar mass, not a printed value.

What was measured:
[1] = from CCOC(=O)c1c(CCCOc2cc(S)cc3ccccc23)c2ccc(Cl)c(-c3c(CSCc4cc(CBr)n(C)n4)nn4c3CCC4)c2n1C; thioether bond; K2CO3; acetonitrile; 3.14 mM; 25.0 °C; 3.0 h; 6 steps
[2] = system: OPM-2 cells; experiment: Cell viability assay (OPM-2 cells), CCK-8; format: cell-based; settings: Homo sapiens, OPM-2, 24 h, WST, 5% FBS, read-out: OPM2 (WST, 5% FBS)
In short: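 OPM-2 cells from DSMZ were tested for viability with a Cell Counting Kit-8 (CCK-8) assay. Serially diluted compound (100 μL) was added to 96-well plates, then 100 μL of cell suspension (20000 cells/well) was added, and plates were incubated at 37° C. under 5% CO2 for 24 hours. After 20 μL CCK-8 solution and 4 hours of incubation, absorbance was read at 450 nm. Readings were normalized to vehicle and IC50 was fitted by nonlinear regression in GraphPad Prism 6.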

[3] = Kinetic solubility assay; format: physicochemical; settings: PBS buffer pH 6.5, aqueous buffer, thermodynamic from solid; pH 6.5 PBS buffer, HPLC; read-out: Solubility (pH 6.5, μg/mL)
Method: Representative Compounds of the Disclosure were tested in a solubility assay with pH 6.5 PBS buffer. PBS buffer was prepared by dissolving 4.86 g of potassium dihydrogen phosphate and 5.09 g of disodium hydrogen phosphate dodecahydrate in 1 L of ultrapure water to have final pH value of 6.5. In the solubility assay, 0.5 mg of test sample was dissolved in 1 mL of methanol and the stock solution was transferred into 2 mL EP tube, and evaporated at 50° C. for 3 h. To the tube was added 1 mL of PBS buffer and the mixture was stirred and shaken for 1-2 h. The solution was allowed to stand overnight and then filtered before HPLC analysis. Another 1.5 mg of the sample was dissolved in 3 mL of methanol to prepare a calibration curve with a series of concentration range of 5-500 μM. The solubility of each sample was determined by the measured peak area in HPLC.

[4] = target: T1, Mcl-1 protein (residues 171-323) (Homo sapiens, UniProt Q07820); experiment: Inhibition of Mcl-1 by fluorescence polarization (FP) competitive binding assay; settings: FAM-Bid tracer 2 nM, Mcl-1 20 nM, 30 min
T1 construct: Tag-free Mcl-1 protein (residues 171-323) was used in the FP assay
In short: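 FAM-Bid peptide (2 nM) was competed against Mcl-1 (20 nM) in PBS with 0.01% BGG and 0.01% Triton X-100 at 5% final DMSO. Anisotropy was read as mP over a 10-point dilution series. IC50 came from a sigmoidal dose-response nonlinear fit.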

[5] = system: NCI-H929 cells; experiment: Cell viability assay (NCI-H929 cells), CCK-8; format: cell-based; settings: Homo sapiens, NCI-H929, 24 h, WST, 5% FBS

T1 sequence (Q07820 171-323): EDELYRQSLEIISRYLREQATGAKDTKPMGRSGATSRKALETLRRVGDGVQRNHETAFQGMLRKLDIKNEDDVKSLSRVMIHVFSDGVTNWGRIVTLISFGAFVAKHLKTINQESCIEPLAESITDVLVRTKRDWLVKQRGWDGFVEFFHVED

Row | Structure (SMILES) | solubility [3] | IC50 [4] | IC50 [5] | ring closure, yield of all isomers [1] | IC50 [2]
1 | Cn1nc2cc1CSc1cc(c3ccccc3c1)OCCCc1c(C(=O)O)n(C)c3c(c(Cl)ccc13)-c1c(nn3c1CCC3)CSC2 | – | – | – | 3% | –
2 | Cn1nc2cc1CSc1cc(c3ccc(F)cc3c1)OCCCc1c(C(=O)O)n(C)c3c(c(Cl)ccc13)-c1c(nn3c1CCCC3)CSC2 [compound 26, (Z)-1^6-chloro-96-fluoro-1^1,6^1-dimethyl-2^4,2^5,2^6,2^7-tetrahydro-1^1H,6^1H-10-oxa-4,8-dithia-2(3,2)-pyrazolo[1,5-a]pyridina-1(7,3)-indola-6(3,5)-pyrazola-9(3,1)-naphthalenacyclotridecaphane-1^2-carboxylic acid] | 1 µg/mL (≈ 1.4 µM) | 0.0309 µM | 0.044 µM | – | 0.133 µM
3 | Cn1nc2cc1CSc1cc(c3ccc(F)cc3c1)OCCCc1c(C(=O)O)n(C)c3c(c(Cl)ccc13)-c1c(nn3c1CCC3)CSC2 [compound 27, (Z)-1^6-chloro-9^6-fluoro-1^1,6^1-dimethyl-2^5,2^6-dihydro-1^1H,2^4H,6^1H-10-oxa-4,8-dithia-1(7,3)-indola-2(3,2)-pyrrolo[1,2-b]pyrazola-6(3,5)-pyrazola-9(3,1)-naphthalenacyclotridecaphane-1^2-carboxylic acid] | 52 µg/mL (≈ 74 µM) | 0.0249 µM | 0.051 µM | – | 0.153 µM
4 | Cc1cc2ccc1CSc1cc(c3ccc(F)cc3c1)OCCCc1c(C(=O)O)n(C)c3c(c(Cl)ccc13)-c1c(nn3c1CCC3)CSC2 [compound 30, 1^6-chloro-9^6-fluoro-1^1,6^3-dimethyl-2^5,2^6-dihydro-1^1H,2^4H-10-oxa-4,8-dithia-1(7,3)-indola-2(3,2)-pyrrolo[1,2-b]pyrazola-9(3,1)-naphthalena-6(1,4)-benzenacyclotridecaphane-1^2-carboxylic acid] | < 1 µg/mL | 0.0142 µM | 0.196 µM | – | 0.255 µM
5 | Cn1nc2cc1CSc1cc(c3ccc(F)cc3c1)OCCCc1c(C(=O)O)n(C)c3c(c(Cl)ccc13)-c1c(nn3c1CCC3)CN(S(C)(=O)=O)C2 [compound 44, (Z)-1^6-chloro-9^6-fluoro-1^1,6^1-dimethyl-4-(methylsulfonyl)-2^5,2^6-dihydro-1^1H,2^4H,6^1H-10-oxa-8-thia-4-aza-1(7,3)-indola-2(3,2)-pyrrolo[1,2-b]pyrazola-6(3,5)-pyrazola-9(3,1)-naphthalenacyclotridecaphane-1^2-carboxylic acid] | > 400 µg/mL | 0.015 µM | 0.156 µM | – | 0.506 µM

More lines, main results first:

Row | solubility [3] | IC50 [4] | IC50 [5] | Structure (SMILES) | ring closure, yield of all isomers [1] | IC50 [2]
6 | < 1 µg/mL | 0.0143 µM | 1.64 µM | Cn1nc2c(Cl)c1CSc1cc(c3ccccc3c1)OCCCc1c(C(=O)O)n(C)c3c(c(Cl)ccc13)-c1c(nn3c1CCCC3)CSC2 [compound 24, (E)-1^6,6^4-dichloro-1^1,6^1-dimethyl-2^4,2^5,2^6,2^7-tetrahydro-1^1H,6^1H-10-oxa-4,8-dithia-2(3,2)-pyrazolo[1,5-a]pyridina-1(7,3)-indola-6(3,5)-pyrazola-9(3,1)-naphthalenacyclotridecaphane-1^2-carboxylic acid] | – | 4.86 µM
7 | 16 µg/mL (≈ 21.8 µM) | 0.019 µM | 0.071 µM | Cc1c2c(nn1C)CN(S(C)(=O)=O)Cc1cc(n(C)n1)CSc1cc(c3ccccc3c1)OCCCc1c(C(=O)O)n(C)c3c-2c(Cl)ccc13 [compound 36, (Z)-1^6-chloro-1^1,2^1,2^5,6^1-tetramethyl-4-(methylsulfonyl)-1^1H,2^1H,6^1H-10-oxa-8-thia-4-aza-1(7,3)-indola-2(4,3),6(3,5)-dipyrazola-9(3,1)-naphthalenacyclotridecaphane-1^2-carboxylic acid] | – | 0.317 µM
8 | 127 µg/mL (≈ 185 µM) | 0.085 µM | 5.99 µM | Cc1oc2nc1CSc1cc(c3ccccc3c1)OCCCc1c(C(=O)O)n(C)c3c(c(Cl)ccc13)-c1c(nn3c1OCC3)CSC2 [compound 38, (Z)-1^6-chloro-1^1,6^5-dimethyl-2^2,2^3-dihydro-1^1H-10-oxa-4,8-dithia-2(7,6)-pyrazolo[5,1-b]oxazola-6(2,4)-oxazola-1(7,3)-indola-9(3,1)-naphthalenacyclotridecaphane-1^2-carboxylic acid] | – | 5.88 µM
9 | 28 µg/mL (≈ 40.3 µM) | 0.021 µM | 0.055 µM | Cc1c2c(nn1C)CN(C1CC1)Cc1cc(n(C)n1)CSc1cc(c3ccccc3c1)OCCCc1c(C(=O)O)n(C)c3c-2c(Cl)ccc13 [compound 49, (Z)-1^6-chloro-4-cyclopropyl-1^1,2^1,2^5,6^1-tetramethyl-1^1H,2^1H,6^1H-10-oxa-8-thia-4-aza-1(7,3)-indola-2(4,3),6(3,5)-dipyrazola-9(3,1)-naphthalenacyclotridecaphane-1^2-carboxylic acid] | – | 0.167 µM
